In patent publication US4442044A, “Process for preparing monoesters and diesters of N-alkyl substituted amino methyl phosphonic acid” (priority 1983, dated 1984):

Legend:
Assay type in all cases: in vivo
Morningglory [1] = assay: post-emergent herbicidal activity, greenhouse
Method in brief: (§1)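 Post-emergence foliar spray at tabulated application rates, using aliquots of a 1.0% stock in acetone, THF or water plus ~0.4% emulsifier, applied to 2–3-week-old greenhouse plants. Plant injury was rated relative to controls roughly two and four weeks after treatment.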

Wheat = assay: post-emergent herbicidal activity, greenhouse; conditions: Table II
Method in brief: as §1

Wild Buckwheat = assay: post-emergent herbicidal activity, greenhouse; conditions: Table II
Method in brief: as §1

Yellow Nutsedge [2] = assay: post-emergent herbicidal activity, greenhouse; conditions: Table I, 4 WAT
Method in brief: as §1

Lambsquarters [3] = assay: post-emergent herbicidal activity, greenhouse
Method in brief: as §1

Smartweed [4] = assay: post-emergent herbicidal activity, greenhouse
Method in brief: as §1

Soybean = assay: post-emergent herbicidal activity, greenhouse; conditions: Table II
Method in brief: as §1

Sugar Beet = assay: post-emergent herbicidal activity, greenhouse; conditions: Table II
Method in brief: as §1

Canada Thistle [5] = assay: post-emergent herbicidal activity, greenhouse; conditions: Table I, 4 WAT
Method in brief: as §1

Cocklebur [6] = assay: post-emergent herbicidal activity, greenhouse
Method in brief: as §1

Sorghum = assay: post-emergent herbicidal activity, greenhouse; conditions: Table II
Method in brief: as §1

Velvetleaf = assay: pre-emergent herbicidal activity, soil incorporation; conditions: Table III, 2 WAT, 11.2 kg/h
Method in brief: (§2)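 Emergence relative to an untreated control was counted after approximately two weeks and converted to an index of average percent control. Treatment was by admixing the active ingredient into the soil used to cover seeds or vegetative propagules, with watering through pan bottoms.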

Morningglory [7] = assay: as above; conditions: Table III, 2 WAT, 11.2 kg/h
Method in brief: as §2

Yellow Nutsedge [8] = assay: as above; conditions: Table III, 2 WAT, 11.2 kg/h
Method in brief: as §2

Lambsquarters [9] = assay: as above; conditions: Table III, 2 WAT, 11.2 kg/h
Method in brief: as §2

Smartweed [10] = assay: as above; conditions: Table III, 2 WAT, 11.2 kg/h
Method in brief: as §2

Canada Thistle [11] = assay: as above; conditions: Table III, 2 WAT, 11.2 kg/h
Method in brief: as §2

Downy Brome = assay: as above; conditions: Table III, 2 WAT, 11.2 kg/h
Method in brief: as §2

Cocklebur [12] = assay: as above; conditions: Table III, 2 WAT, 11.2 kg/h
Method in brief: as §2

Barnyardgrass = assay: as above; conditions: Table III, 2 WAT, 11.2 kg/h
Method in brief: as §2

Quackgrass = assay: as above; conditions: Table III, 2 WAT, 11.2 kg/h
Method in brief: as §2

Johnsongrass = assay: as above; conditions: Table III, 2 WAT, 11.2 kg/h
Method in brief: as §2

CC(C#N)OP(=O)(O)CNCC(=O)OCc1ccccc1 (stereo not shown) [Example 10, glycine, N-[[(1-cyanoethoxy)hydroxyphosphinyl]methyl]-,phenylmethyl ester] was tested, and the “post-emergent herbicidal activity index” value (Morningglory [1]; Table I, 4 WAT, 5.6 kg/h) was 2 (50-74% control), the “post-emergent herbicidal activity index” value (Morningglory [1]; Table I, 4 WAT, 11.2 kg/h) was 2 (50-74% control) and the “post-emergent herbicidal activity index” value (Morningglory [1]; Table II, 2 WAT, 0.011 kg/h) was 0 (0-24% control). For the same compound, the “post-emergent herbicidal activity index” value (Morningglory [1]; Table II, 2 WAT, 0.056 kg/h) was 0 (0-24% control), the “post-emergent herbicidal activity index” value (Morningglory [1]; Table II, 4 WAT, 0.28 kg/h) was 2 (50-74% control) and the “post-emergent herbicidal activity index” value (Morningglory [1]; Table II, 4 WAT, 1.12 kg/h) was 2 (50-74% control). For the same compound, the “post-emergent herbicidal activity index” value (Morningglory [1]; Table II, 4 WAT, 5.6 kg/h) was 2 (50-74% control), the “post-emergent herbicidal activity index” value (Wheat; 2 WAT, 0.011 kg/h) was 0 (0-24% control) and the “post-emergent herbicidal activity index” value (Wheat; 2 WAT, 0.056 kg/h) was 0 (0-24% control). For the same compound, the “post-emergent herbicidal activity index” value (Wheat; 4 WAT, 0.28 kg/h) was 1 (25-49% control), the “post-emergent herbicidal activity index” value (Wheat; 4 WAT, 1.12 kg/h) was 2 (50-74% control) and the “post-emergent herbicidal activity index” value (Wheat; 4 WAT, 5.6 kg/h) was 2 (50-74% control). For the same compound, the “post-emergent herbicidal activity index” value (Wild Buckwheat; 2 WAT, 0.011 kg/h) was 0 (0-24% control), the “post-emergent herbicidal activity index” value (Wild Buckwheat; 2 WAT, 0.056 kg/h) was 0 (0-24% control) and the “post-emergent herbicidal activity index” value (Wild Buckwheat; 4 WAT, 0.28 kg/h) was 1 (25-49% control). The “post-emergent herbicidal activity index” value (Wild Buckwheat; 4 WAT, 1.12 kg/h) was 2 (50-74% control), the “post-emergent herbicidal activity index” value (Wild Buckwheat; 4 WAT, 5.6 kg/h) was 3 (75-99% control) and the “post-emergent herbicidal activity index” value (Yellow Nutsedge [2]; 5.6 kg/h) was 1 (25-49% control). For the same compound, the “post-emergent herbicidal activity index” value (Yellow Nutsedge [2]; 11.2 kg/h) was 1 (25-49% control), the “post-emergent herbicidal activity index” value (Lambsquarters [3]; Table I, 4 WAT, 5.6 kg/h) was 3 (75-99% control) and the “post-emergent herbicidal activity index” value (Lambsquarters [3]; Table I, 4 WAT, 11.2 kg/h) was 3 (75-99% control). The “post-emergent herbicidal activity index” value (Lambsquarters [3]; Table II, 2 WAT, 0.011 kg/h) was 0 (0-24% control), the “post-emergent herbicidal activity index” value (Lambsquarters [3]; Table II, 2 WAT, 0.056 kg/h) was 1 (25-49% control) and the “post-emergent herbicidal activity index” value (Lambsquarters [3]; Table II, 4 WAT, 0.28 kg/h) was 2 (50-74% control). For the same compound, the “post-emergent herbicidal activity index” value (Lambsquarters [3]; Table II, 4 WAT, 1.12 kg/h) was 3 (75-99% control), the “post-emergent herbicidal activity index” value (Lambsquarters [3]; Table II, 4 WAT, 5.6 kg/h) was 3 (75-99% control) and the “post-emergent herbicidal activity index” value (Smartweed [4]; Table I, 4 WAT, 11.2 kg/h) was 4 (100% control). For the same compound, the “post-emergent herbicidal activity index” value (Smartweed [4]; Table II, 2 WAT, 0.011 kg/h) was 0 (0-24% control), the “post-emergent herbicidal activity index” value (Smartweed [4]; Table II, 2 WAT, 0.056 kg/h) was 0 (0-24% control) and the “post-emergent herbicidal activity index” value (Smartweed [4]; Table II, 4 WAT, 0.28 kg/h) was 4 (100% control). The “post-emergent herbicidal activity index” value (Smartweed [4]; Table II, 4 WAT, 1.12 kg/h) was 4 (100% control), the “post-emergent herbicidal activity index” value (Smartweed [4]; Table II, 4 WAT, 5.6 kg/h) was 4 (100% control) and the “post-emergent herbicidal activity index” value (Soybean; 2 WAT, 0.011 kg/h) was 0 (0-24% control). For the same compound, the “post-emergent herbicidal activity index” value (Soybean; 2 WAT, 0.056 kg/h) was 1 (25-49% control), the “post-emergent herbicidal activity index” value (Soybean; 4 WAT, 0.28 kg/h) was 1 (25-49% control) and the “post-emergent herbicidal activity index” value (Soybean; 4 WAT, 1.12 kg/h) was 1 (25-49% control). The “post-emergent herbicidal activity index” value (Soybean; 4 WAT, 5.6 kg/h) was 3 (75-99% control), the “post-emergent herbicidal activity index” value (Sugar Beet; 2 WAT, 0.011 kg/h) was 0 (0-24% control) and the “post-emergent herbicidal activity index” value (Sugar Beet; 2 WAT, 0.056 kg/h) was 0 (0-24% control). For the same compound, the “post-emergent herbicidal activity index” value (Sugar Beet; 4 WAT, 0.28 kg/h) was 3 (75-99% control), the “post-emergent herbicidal activity index” value (Sugar Beet; 4 WAT, 1.12 kg/h) was 2 (50-74% control) and the “post-emergent herbicidal activity index” value (Sugar Beet; 4 WAT, 5.6 kg/h) was 3 (75-99% control). The “post-emergent herbicidal activity index” value (Canada Thistle [5]; 5.6 kg/h) was 1 (25-49% control), the “post-emergent herbicidal activity index” value (Canada Thistle [5]; 11.2 kg/h) was 2 (50-74% control) and the “post-emergent herbicidal activity index” value (Cocklebur [6]; Table I, 4 WAT, 5.6 kg/h) was 2 (50-74% control). For the same compound, the “post-emergent herbicidal activity index” value (Cocklebur [6]; Table I, 4 WAT, 11.2 kg/h) was 2 (50-74% control), the “post-emergent herbicidal activity index” value (Cocklebur [6]; Table II, 2 WAT, 0.011 kg/h) was 0 (0-24% control) and the “post-emergent herbicidal activity index” value (Cocklebur [6]; Table II, 2 WAT, 0.056 kg/h) was 0 (0-24% control). The “post-emergent herbicidal activity index” value (Cocklebur [6]; Table II, 4 WAT, 0.28 kg/h) was 1 (25-49% control), the “post-emergent herbicidal activity index” value (Cocklebur [6]; Table II, 4 WAT, 1.12 kg/h) was 2 (50-74% control) and the “post-emergent herbicidal activity index” value (Cocklebur [6]; Table II, 4 WAT, 5.6 kg/h) was 3 (75-99% control). For the same compound, the “post-emergent herbicidal activity index” value (Sorghum; 2 WAT, 0.011 kg/h) was 0 (0-24% control), the “post-emergent herbicidal activity index” value (Sorghum; 2 WAT, 0.056 kg/h) was 0 (0-24% control) and the “post-emergent herbicidal activity index” value (Sorghum; 4 WAT, 0.28 kg/h) was 2 (50-74% control). The “post-emergent herbicidal activity index” value (Sorghum; 4 WAT, 1.12 kg/h) was 2 (50-74% control), the “post-emergent herbicidal activity index” value (Sorghum; 4 WAT, 5.6 kg/h) was 3 (75-99% control) and the “pre-emergent herbicidal activity index” value (Velvetleaf) was 0 (1-24% control). The “pre-emergent herbicidal activity index” value (Morningglory [7]) was 0 (1-24% control), the “pre-emergent herbicidal activity index” value (Yellow Nutsedge [8]) was 0 (1-24% control) and the “pre-emergent herbicidal activity index” value (Lambsquarters [9]) was 0 (1-24% control). For the same compound, the “pre-emergent herbicidal activity index” value (Smartweed [10]) was 0 (1-24% control), the “pre-emergent herbicidal activity index” value (Canada Thistle [11]) was 3 (75-100% control) and the “pre-emergent herbicidal activity index” value (Downy Brome) was 0 (1-24% control). For the same compound, the “pre-emergent herbicidal activity index” value (Cocklebur [12]) was 0 (1-24% control), the “pre-emergent herbicidal activity index” value (Barnyardgrass) was 0 (1-24% control) and the “pre-emergent herbicidal activity index” value (Quackgrass) was 0 (1-24% control). For the same compound, the “pre-emergent herbicidal activity index” value (Johnsongrass) was 2 (50-74% control).
